The record followed here is patent US20220396565A1 (Hoffmann-La Roche Inc., priority 2020, published 2022).

Where a name gives a salt, the structure may show the parent alone.

The subject of the first test is Acinetobacter baumannii ATCC17961. The experiment in a line: Antimicrobial susceptibility testing: 90% growth inhibitory concentration (IC90) determination, Iso-Sensitest broth. It is filed as cell-based. The following applies: Acinetobacter baumannii, ATCC17961, 90% growth inhibitory concentration, Acinetobacter baumannii ATCC17961, Iso-Sensitest broth; read-out: ATCC 17961 IC90. The gist of the method:
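Twofold serial dilutions (e.g. 10 to 0.02 μM final) were tested in Iso-Sensitest broth against ~5×10^(5) CFU/ml at 35±2 °C. OD600 was read every 20 min over 16 h. IC90 was derived from growth inhibition during the logarithmic phase.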
In the case of `Cn1c(-c2ccc(OC(F)F)c(F)c2F)cnc1C(=O)Nc1ccc(C(=O)N2CCN(C(=O)[C@@H]3C[C@@H](O)CN3)CC2)c(Cl)c1` [Example 163, N-[3-chloro-4-[4-[(2S,4R)-4-hydroxypyrrolidine-2-carbonyl]piperazine-1-carbonyl]phenyl]-5-[4-(difluoromethoxy)-2,3-difluoro-phenyl]-1-methyl-imidazole-2-carboxamide formate], the IC90 was found to be 40 nM. `Cn1c(-c2ccc(OCF)c(F)c2F)cnc1C(=O)Nc1ccc(C(=O)N2CCN(C(=O)CC3(O)CCNCC3)CC2)c(Cl)c1` [Example 164, N-[3-chloro-4-[4-[2-(4-hydroxy-4-piperidyl)acetyl]piperazine-1-carbonyl]phenyl]-5-[2,3-difluoro-4-(fluoromethoxy)phenyl]-1-methyl-imidazole-2-carboxamide formate]: the IC90 turned out to be 70 nM. Regarding `COc1ccc(-c2cnc(C(=O)Nc3ccc(C(=O)N4CCN(C(=O)C5CNC5)CC4)c(Cl)c3)n2C)c(F)c1F` [Example 165, N-[4-[4-(azetidine-3-carbonyl)piperazine-1-carbonyl]-3-chloro-phenyl]-5-(2,3-difluoro-4-methoxy-phenyl)-1-methyl-imidazole-2-carboxamide formate], the IC90 is 50 nM. As for `COc1ccc(-c2cnc(C(=O)Nc3ccc(C(=O)N4CCN(C(=O)C5(O)CCNCC5)CC4)c(Cl)c3)n2C)c(F)c1F` [Example 166, N-[3-chloro-4-[4-(4-hydroxypiperidine-4-carbonyl)piperazine-1-carbonyl]phenyl]-5-(2,3-difluoro-4-methoxy-phenyl)-1-methyl-imidazole-2-carboxamide formate], the IC90 is 50 nM. As for `COc1ccc(-c2cnc(C(=O)Nc3ccc(C(=O)N4CCN(C(=O)C[C@@H]5CCNC5)CC4)c(Cl)c3)n2C)c(Cl)c1F` [Example 167, 5-(2-chloro-3-fluoro-4-methoxy-phenyl)-N-[3-chloro-4-[4-[2-[(3S)-pyrrolidin-3-yl]acetyl]piperazine-1-carbonyl]phenyl]-1-methyl-imidazole-2-carboxamide formate], the 90% effect concentration (IC90) was 50 nM.

As to `COc1c(F)cc(-c2cnc(C(=O)Nc3ccc(C(=O)N4CCN(C(=O)C5CCNCC5)CC4)c(Cl)c3)n2C)c(F)c1F` [Example 168, N-[3-chloro-4-[4-(piperidine-4-carbonyl)piperazine-1-carbonyl]phenyl]-1-methyl-5-(2,3,5-trifluoro-4-methoxy-phenyl)imidazole-2-carboxamide formate], the IC90 amounted to 150 nM. As for `Cn1c(-c2ccc(OC(F)F)c(F)c2Cl)cnc1C(=O)Nc1ccc(C(=O)N2CCN(C(=O)C3(O)CCNCC3)CC2)c(Cl)c1` [Example 169, 5-[2-chloro-4-(difluoromethoxy)-3-fluoro-phenyl]-N-[3-chloro-4-[4-(4-hydroxypiperidine-4-carbonyl)piperazine-1-carbonyl]phenyl]-1-methyl-imidazole-2-carboxamide formate], the IC90 is 30 nM. In the case of `CCOc1ccc(-c2cnc(C(=O)Nc3ccc(C(=O)N4CCN(C(=O)C5(O)CCNCC5)CC4)c(Cl)c3)n2C)c(F)c1F` [Example 170, N-[3-chloro-4-[4-(4-hydroxypiperidine-4-carbonyl)piperazine-1-carbonyl]phenyl]-5-(4-ethoxy-2,3-difluoro-phenyl)-1-methyl-imidazole-2-carboxamide formate], the IC90 was 60 nM. Consider `Cn1c(-c2ccc(OC(F)F)c(F)c2Cl)cnc1C(=O)Nc1ccc(C(=O)N2CCN(C(=O)CC3(O)CCNCC3)CC2)c(Cl)c1` [Example 172, 5-[2-chloro-4-(difluoromethoxy)-3-fluoro-phenyl]-N-[3-chloro-4-[4-[2-(4-hydroxy-4-piperidyl)acetyl]piperazine-1-carbonyl]phenyl]-1-methyl-imidazole-2-carboxamide formate], for which the IC90 came to 50 nM. For the molecule `Cn1c(-c2ccc(OCF)c(F)c2Cl)cnc1C(=O)Nc1ccc(C(=O)N2CCN(C(=O)CC3(O)CCNCC3)CC2)c(Cl)c1` [Example 173, 5-[2-chloro-3-fluoro-4-(fluoromethoxy)phenyl]-N-[3-chloro-4-[4-[2-(4-hydroxy-4-piperidyl)acetyl]piperazine-1-carbonyl]phenyl]-1-methyl-imidazole-2-carboxamide formate], the IC90 worked out at 50 nM. For `Cn1c(-c2ccc(OC(F)F)c(F)c2F)cnc1C(=O)Nc1ccc(C(=O)N2CCN(C(=O)C3CCN(C(=O)C4CNC4)CC3)CC2)c(Cl)c1` [Example 174, N-[4-[4-[1-(azetidine-3-carbonyl)piperidine-4-carbonyl]piperazine-1-carbonyl]-3-chloro-phenyl]-5-[4-(difluoromethoxy)-2,3-difluoro-phenyl]-1-methyl-imidazole-2-carboxamide formate], the IC90 came out at 70 nM. Regarding `CN(C)CC(=O)N1CCN(C(=O)c2ccc(NC(=O)c3ncc(-c4ccc(OC(F)F)cc4F)n3C)cc2Cl)CC1` [Example 175, N-[3-chloro-4-[4-[2-(dimethylamino)acetyl]piperazine-1-carbonyl]phenyl]-5-[4-(difluoromethoxy)-2-fluoro-phenyl]-1-methyl-imidazole-2-carboxamide formate], the IC90 turned out to be 50 nM. Regarding `CN(C)CC(=O)N1CCN(C(=O)c2ccc(NC(=O)c3ncc(-c4ccc(OC(F)F)c(F)c4)n3C)cc2Cl)CC1` [Example 176, N-[3-chloro-4-[4-[2-(dimethylamino)acetyl]piperazine-1-carbonyl]phenyl]-5-[4-(difluoromethoxy)-3-fluoro-phenyl]-1-methyl-imidazole-2-carboxamide formate], the IC90 worked out at 80 nM. As to `COc1ccc(-c2cnc(C(=O)Nc3ccc(C(=O)N4CCN(C(=O)CC5(O)CNC5)CC4)c(Cl)c3)n2C)c(F)c1F` [Example 177, N-[3-chloro-4-[4-[2-(3-hydroxyazetidin-3-yl)acetyl]piperazine-1-carbonyl]phenyl]-5-(2,3-difluoro-4-methoxy-phenyl)-1-methyl-imidazole-2-carboxamide formate], the IC90 came to 50 nM. For `Cn1c(-c2ccc(OC(F)F)cc2F)cnc1C(=O)Nc1ccc(C(=O)N2CCN(C(=O)CC3CNC3)CC2)c(Cl)c1` [Example 178, N-[4-[4-[2-(azetidin-3-yl)acetyl]piperazine-1-carbonyl]-3-chloro-phenyl]-5-[4-(difluoromethoxy)-2-fluoro-phenyl]-1-methyl-imidazole-2-carboxamide formate], the IC90 stood at 70 nM. Turning to `Cn1c(-c2ccc(OC(F)F)c(F)c2F)cnc1C(=O)Nc1ccc(C(=O)N2CCN(C(=O)C3CCN(C(=O)C4(O)CCNCC4)CC3)CC2)c(Cl)c1` [Example 179, N-[3-chloro-4-[4-[1-(4-hydroxypiperidine-4-carbonyl)piperidine-4-carbonyl]piperazine-1-carbonyl]phenyl]-5-[4-(difluoromethoxy)-2,3-difluoro-phenyl]-1-methyl-imidazole-2-carboxamide formate], the IC90 came out at 50 nM.

For the molecule `Cn1c(-c2ccc(OC(F)F)cc2F)cnc1C(=O)Nc1ccc(C(=O)N2CCN(C(=O)C3CCNCC3)CC2)c(Cl)c1` [Example 180, N-[3-chloro-4-[4-(piperidine-4-carbonyl)piperazine-1-carbonyl]phenyl]-5-[4-(difluoromethoxy)-2-fluoro-phenyl]-1-methyl-imidazole-2-carboxamide formate], the IC90 stood at 60 nM. The same measure, in the same setting: for `Cn1c(-c2ccc(OC(F)F)c(F)c2)cnc1C(=O)Nc1ccc(C(=O)N2CCN(C(=O)C[C@@H]3CCCN3)CC2)c(Cl)c1` [Example 181, N-[3-chloro-4-[4-[2-[(2S)-pyrrolidin-2-yl]acetyl]piperazine-1-carbonyl]phenyl]-5-[4-(difluoromethoxy)-3-fluoro-phenyl]-1-methyl-imidazole-2-carboxamide formate] the value was 130 nM; for `COc1ccc(-c2cnc(C(=O)Nc3ccc(C(=O)N4CCN(C(=O)CC5(O)CCNCC5)CC4)c(Cl)c3)n2C)c(Cl)c1F` [Example 182, 5-(2-chloro-3-fluoro-4-methoxy-phenyl)-N-[3-chloro-4-[4-[2-(4-hydroxy-4-piperidyl)acetyl]piperazine-1-carbonyl]phenyl]-1-methyl-imidazole-2-carboxamide formate], 70 nM; for `CCOc1ccc(-c2cnc(C(=O)Nc3ccc(C(=O)N4CCN(C(=O)CC5(O)CCNCC5)CC4)c(Cl)c3)n2C)c(F)c1F` [Example 183, N-[3-chloro-4-[4-[2-(4-hydroxy-4-piperidyl)acetyl]piperazine-1-carbonyl]phenyl]-5-(4-ethoxy-2,3-difluoro-phenyl)-1-methyl-imidazole-2-carboxamide formate], 80 nM. Consider `COc1ccc(-c2cnc(C(=O)Nc3ccc(C(=O)N4CCN(C(=O)[C@H]5[C@@H]6CNC[C@@H]65)CC4)c(Cl)c3)n2C)c(F)c1F` [Example 184, N-[4-[4-[(1R,5S)-3-azabicyclo[3.1.0]hexane-6-carbonyl]piperazine-1-carbonyl]-3-chloro-phenyl]-5-(2,3-difluoro-4-methoxy-phenyl)-1-methyl-imidazole-2-carboxamide trifluoroacetate], for which the IC90 was found to be 20 nM. Still for that read-out and setting: the figure for `COc1ccc(-c2cnc(C(=O)Nc3ccc(C(=O)N4CCN(C(=O)C5CC(CN)C5)CC4)c(Cl)c3)n2C)c(F)c1F` (centres unmarked) [Example 185, N-[4-[4-[3-(aminomethyl)cyclobutanecarbonyl]piperazine-1-carbonyl]-3-chloro-phenyl]-5-(2,3-difluoro-4-methoxy-phenyl)-1-methyl-imidazole-2-carboxamide formate] is 60 nM.

The test is the same for the next values; noted with them: Acinetobacter baumannii, ATCC17961, read-out: ATCC 17961 IC90.
`Cn1c(-c2ccc(OCF)c(F)c2F)cnc1C(=O)Nc1ccc(C(=O)N2CCN(C(=O)C3CNCC(O)C3)CC2)c(Cl)c1` (centres unmarked) [Example 171, formate]: the IC90 amounted to 50 nM.

The term IC90 denotes the concentration needed for an effect of 90%.
